The term ΔTm denotes the change in melting temperature against a reference sample.

Molecules are shown by their SMILES. Calls of active or inactive are those of the source. No cut-off for these calls is given here.

The target of data set [1] is T1, Regulator of G-protein signaling 17 (Homo sapiens) (UniProt Q9UGC6).
T1 sequence (whole entry): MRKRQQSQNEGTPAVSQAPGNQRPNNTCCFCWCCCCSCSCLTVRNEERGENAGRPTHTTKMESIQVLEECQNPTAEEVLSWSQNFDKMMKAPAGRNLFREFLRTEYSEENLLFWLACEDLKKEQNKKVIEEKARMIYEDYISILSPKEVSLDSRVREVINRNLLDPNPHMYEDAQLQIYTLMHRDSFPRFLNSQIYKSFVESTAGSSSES
Description: Inhibition of RGS17 (unknown origin) assessed as reduction in RGS17 interaction with 6x-his-tagged biotinylated Galpha-o interaction at 100 uM followed by 3 times drug wash out with ASB buffer by Alpha-screen assay.

Data set [2] concerns the target T1, Regulator of G-protein signaling 17 (Homo sapiens). Description: Covalent binding affinity to N-terminal deficient RGS17 (unknown origin) assessed as covalent protein-compound adduct formation at 50 uM incubated for 1 hr by MALDI-TOF mass spectrometry.
The target is the same in data set [3]. Description: Inhibition of cell membrane translocation of N-terminal GFP tagged and N-terminal deficient RGS17 (unknown origin) expressed in HEK293T cells co-expressing Galpha-o assessed as induction of delocalization of RGS17deltaN to cytoplasm at 100 uM incubated for 10 mins by confocal microscopy. The format is cell-based.
The target is the same in data set [4]. Description: Inhibition of RGS17 (unknown origin) assessed as reduction in RGS17 interaction with 6x-his-tagged biotinylated Galpha-o interaction at 100 uM by Alpha-screen assay. Background: Bead proximity is the source of the signal in Alpha formats.
Data set [5] shares this target. Description: Inhibition of RGS17 (unknown origin) assessed as reduction in RGS17 interaction with 6x-his-tagged biotinylated Galpha-o interaction by Alpha-screen assay.
Data set [6] has the same target. Description: Binding affinity to RGS17 (unknown origin) assessed as shifting of protein melting temperature by Sypro-orange dye based differential scanning fluorimetry.
The target is the same in data set [7]. Description: Inhibition of cell membrane translocation of N-terminal GFP tagged and N-terminal deficient RGS17 (unknown origin) expressed in HEK293T cells co-expressing Galpha-o assessed as induction of delocalization of RGS17deltaN to cytoplasm at 10 uM incubated for 10 mins by confocal microscopy. The format is cell-based.
For data set [8] the target is unchanged. Description: Inhibition of cell membrane translocation of N-terminal GFP tagged full length RGS17 (unknown origin) expressed in HEK293T cells co-expressing Galpha-o at 100 uM incubated for 10 mins by confocal microscopy. In kind it is cell-based.
Data set [9] addresses Guanine nucleotide-binding protein G(o) subunit alpha (Homo sapiens) (UniProt P09471). Description: Binding affinity to Galpha-o (unknown origin) assessed as shifting of protein melting temperature by Sypro-orange dye based differential scanning fluorimetry.
In a further data set the test system is HEK-293T. Description: Cytotoxicity in HEK293T cells co-expressing Galpha-o at 100 uM incubated for 10 mins. The format is cell-based. The settings on record: human.

Guanine nucleotide-binding protein G(o) subunit alpha (Homo sapiens), sequence (P09471 2-354 limits assumed): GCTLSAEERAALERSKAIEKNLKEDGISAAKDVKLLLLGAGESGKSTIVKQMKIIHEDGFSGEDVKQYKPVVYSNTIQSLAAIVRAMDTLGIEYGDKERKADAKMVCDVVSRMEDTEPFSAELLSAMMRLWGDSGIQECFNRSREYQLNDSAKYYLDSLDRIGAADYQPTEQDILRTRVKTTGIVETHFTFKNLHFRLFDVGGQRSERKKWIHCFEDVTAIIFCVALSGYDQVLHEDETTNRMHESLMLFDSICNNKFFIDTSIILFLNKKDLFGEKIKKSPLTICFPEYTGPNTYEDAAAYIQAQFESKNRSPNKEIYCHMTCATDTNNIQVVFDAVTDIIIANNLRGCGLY

`C[n+]1cc2c3c(ccc2c2ccc4cc5c(cc4c21)OCO5)OCO3`: the inhibition result in data set [1], in [3] and in [7] was “Active” throughout. In data set [2], the result was inactive. Further, the inhibition result in data set [4] and in data set [8] was “inactive” throughout. The inhibition result in [5] was “Dose-dependent effect”. Further, the ΔTm in [6] is 2.1 °C.
For `O=c1c(-c2cc(O)c(O)c(O)c2)coc2cc(O)c(O)c(O)c12`, the inhibition result in data set [1], in data set [3] and in data set [7] was “Active” in each case. For the same molecule, the result in data set [2] was inactive. In addition, the inhibition entry in data set [4] was “inactive”. For the same molecule, the inhibition result in data set [5] was “Dose-dependent effect”. For the same molecule, in [6], the ΔTm turned out to be 1 °C.
In the case of `Cc1ccc(-n2sc(=O)n(Cc3ccc(F)cc3)c2=O)cc1`, the inhibition result in data set [3] is “inactive”.
`CC1=C(O)C(=O)C=C2C1=CC=C1[C@@]2(C)CC[C@@]2(C)[C@@H]3C[C@](C)(C(=O)O)CC[C@]3(C)CC[C@]12C`: the inhibition entry in data set [1], in [3] and in [7] was “Active” throughout. The outcome in [2] was inactive. Further, in [4], the inhibition entry was “inactive”. Moreover, in data set [5], the inhibition result was “Dose-dependent effect”. In addition, in [6], the ΔTm was 1.4 °C.
In the case of `CC(C)=CCC[C@]1(C)C=Cc2c(O)c3c(c(CC=C(C)C)c2O1)O[C@]12C(=C[C@@H]4C[C@H]1C(C)(C)O[C@@]2(C/C=C(/C)C(=O)O)C4=O)C3=O` [GAMBOGIC ACID], the inhibition result in data set [1] is “Active”. The outcome in data set [2] was inactive. In addition, the inhibition entry in data set [3] and in data set [4] was “inactive” throughout. The outcome in data set [9] and in data set [6] was Active. Besides, in [5], the inhibition entry is “Dose-dependent effect”. For the same molecule, the Activity entry in the data set with HEK-293T is listed as “Toxic”.

The values above are taken from ChEMBL document CHEMBL4417625, “Therapeutic compounds and methods” (2016).
